The subject of the series is CCRIS mutagenicity, Ames/micronucleus/aberration tests. The series can be described thus: CCRIS mutagenicity studies.
The mark [1] stands for this setting: Test System: AMES SALMONELLA TYPHIMURIUM, Strain/Indicator: TA98, Metabolic Activation: NONE, Method: STANDARD PLATE.
The mark [2] stands for this setting: Test System: AMES SALMONELLA TYPHIMURIUM, Strain/Indicator: TA98, Metabolic Activation: RAT, LIVER, S-9, AROCLOR 1254, Method: STANDARD PLATE.
The mark [3] stands for this setting: Test System: AMES SALMONELLA TYPHIMURIUM, Strain/Indicator: TA100, Metabolic Activation: NONE, Method: STANDARD PLATE.
[4] abbreviates: Test System: AMES SALMONELLA TYPHIMURIUM, Strain/Indicator: TA100, Metabolic Activation: RAT, LIVER, S-9, AROCLOR 1254, Method: STANDARD PLATE.

Activity calls are given as the source filed them. The rule behind the calls is not given here.

Take `CNc1ccc(N(CCO)CCO)cc1[N+](=O)[O-]`: the mutagenic call (End Point: IN VITRO CHROMOSOMAL ABERRATIONS, Test System: CHO-LB CELLS, Metabolic Activation: NONE) was “inactive; negative”; the mutagenic call (End Point: IN VITRO CHROMOSOMAL ABERRATIONS, Test System: CHO-LB CELLS, Metabolic Activation: RAT, LIVER, S-9, AROCLOR 1254) is “active; positive”; the mutagenic call (Test System: AMES SALMONELLA TYPHIMURIUM, Strain/Indicator: TA97, Metabolic Activation: HAMSTER, LIVER, S-9, AROCLOR 1254 (10%), Method: PREINCUBATION) is “active; positive”; the mutagenic call (Test System: AMES SALMONELLA TYPHIMURIUM, Strain/Indicator: TA97, Metabolic Activation: HAMSTER, LIVER, S-9, AROCLOR 1254, Method: PREINCUBATION) is “active; positive”; the mutagenic call (Test System: AMES SALMONELLA TYPHIMURIUM, Strain/Indicator: TA97, Metabolic Activation: NONE, Method: PREINCUBATION) was “active; positive”; the mutagenic call (Test System: AMES SALMONELLA TYPHIMURIUM, Strain/Indicator: TA97, Metabolic Activation: RAT, LIVER, S-9, AROCLOR 1254 (10%), Method: PREINCUBATION) is “active; positive”. For the same compound, the mutagenic call runs as follows: (Test System: AMES SALMONELLA TYPHIMURIUM, Strain/Indicator: TA97, Metabolic Activation: RAT, LIVER, S-9, AROCLOR 1254, Method: PREINCUBATION) “active; positive”; (Test System: AMES SALMONELLA TYPHIMURIUM, Strain/Indicator: TA98, Metabolic Activation: HAMSTER, LIVER, S-9, AROCLOR 1254 (10%), Method: PREINCUBATION) “active; positive”; (Test System: AMES SALMONELLA TYPHIMURIUM, Strain/Indicator: TA98, Metabolic Activation: HAMSTER, LIVER, S-9, AROCLOR 1254, Method: PREINCUBATION) “active; positive”; (Test System: AMES SALMONELLA TYPHIMURIUM, Strain/Indicator: TA98, Metabolic Activation: NONE, Method: PREINCUBATION) “active; positive”; under setting [1], “inactive; negative”; (Test System: AMES SALMONELLA TYPHIMURIUM, Strain/Indicator: TA98, Metabolic Activation: RAT, LIVER, S-9, AROCLOR 1254 (10%), Method: PREINCUBATION) “active; positive”. Moreover, the mutagenic call is “active; positive” (Test System: AMES SALMONELLA TYPHIMURIUM, Strain/Indicator: TA98, Metabolic Activation: RAT, LIVER, S-9, AROCLOR 1254, Method: PREINCUBATION); “inactive; negative” under setting [2]; “active; positive” (Test System: AMES SALMONELLA TYPHIMURIUM, Strain/Indicator: TA100, Metabolic Activation: HAMSTER, LIVER, S-9, AROCLOR 1254 (10%), Method: PREINCUBATION); “active; positive” (Test System: AMES SALMONELLA TYPHIMURIUM, Strain/Indicator: TA100, Metabolic Activation: HAMSTER, LIVER, S-9, AROCLOR 1254, Method: PREINCUBATION); “active; positive” (Test System: AMES SALMONELLA TYPHIMURIUM, Strain/Indicator: TA100, Metabolic Activation: NONE, Method: PREINCUBATION); “inactive; negative” under setting [3]. Further, the mutagenic call is “active; positive” (Test System: AMES SALMONELLA TYPHIMURIUM, Strain/Indicator: TA100, Metabolic Activation: RAT, LIVER, S-9, AROCLOR 1254 (10%), Method: PREINCUBATION); “active; positive” (Test System: AMES SALMONELLA TYPHIMURIUM, Strain/Indicator: TA100, Metabolic Activation: RAT, LIVER, S-9, AROCLOR 1254, Method: PREINCUBATION); “inactive; negative” under setting [4]; “inactive; negative” (Test System: AMES SALMONELLA TYPHIMURIUM, Strain/Indicator: TA1535, Metabolic Activation: HAMSTER, LIVER, S-9, AROCLOR 1254 (10%), Method: PREINCUBATION); “inactive; negative” (Test System: AMES SALMONELLA TYPHIMURIUM, Strain/Indicator: TA1535, Metabolic Activation: HAMSTER, LIVER, S-9, AROCLOR 1254, Method: PREINCUBATION); “inactive; negative” (Test System: AMES SALMONELLA TYPHIMURIUM, Strain/Indicator: TA1535, Metabolic Activation: NONE, Method: PREINCUBATION). Also, the mutagenic call is, setting by setting: (Test System: AMES SALMONELLA TYPHIMURIUM, Strain/Indicator: TA1535, Metabolic Activation: NONE, Method: STANDARD PLATE) “inactive; negative”; (Test System: AMES SALMONELLA TYPHIMURIUM, Strain/Indicator: TA1535, Metabolic Activation: RAT, LIVER, S-9, AROCLOR 1254 (10%), Method: PREINCUBATION) “inactive; negative”; (Test System: AMES SALMONELLA TYPHIMURIUM, Strain/Indicator: TA1535, Metabolic Activation: RAT, LIVER, S-9, AROCLOR 1254, Method: PREINCUBATION) “inactive; negative”; (Test System: AMES SALMONELLA TYPHIMURIUM, Strain/Indicator: TA1535, Metabolic Activation: RAT, LIVER, S-9, AROCLOR 1254, Method: STANDARD PLATE) “inactive; negative”; (Test System: AMES SALMONELLA TYPHIMURIUM, Strain/Indicator: TA1537, Metabolic Activation: NONE, Method: STANDARD PLATE) “inactive; negative”; (Test System: AMES SALMONELLA TYPHIMURIUM, Strain/Indicator: TA1537, Metabolic Activation: RAT, LIVER, S-9, AROCLOR 1254, Method: STANDARD PLATE) “inactive; negative”. For the same compound, the mutagenic call is, setting by setting: (Test System: E. COLI, Strain/Indicator: WP2 UVRA, Metabolic Activation: NONE, Method: STANDARD PLATE) “inactive; negative”; (Test System: E. COLI, Strain/Indicator: WP2 UVRA, Metabolic Activation: RAT, LIVER, S-9, AROCLOR 1254, Method: STANDARD PLATE) “inactive; negative”; (Test System: MOUSE LYMPHOMA, Strain/Indicator: L5178Y (TK+/TK-), Metabolic Activation: RAT, LIVER, S-9, AROCLOR 1254, Method: SUSPENSION/PLATE) “inactive; negative”; (Test System: UDS MONKEY PRIMARY HEPATOCYTES, Strain/Indicator: THY INCORP (NON-S-PHASE), Metabolic Activation: NONE, Method: AUTORADIOGRAPHY) “active; positive”; (Test System: UDS RODENT PRIMARY HEPATOCYTES, Strain/Indicator: THY INCORP (NON-S-PHASE), Metabolic Activation: NONE, Method: AUTORADIOGRAPHY) “active; positive”.

Consider `Cn1cnc(N=O)c1-c1ccccc1`, for which, under setting [3], the mutagenic call is “active; positive”.

As to `Nc1ccc2c(c1)Cc1cc([N+](=O)[O-])ccc1-2`, the mutagenic call (Test System: AMES SALMONELLA TYPHIMURIUM, Strain/Indicator: TA98, Metabolic Activation: HAMSTER, LIVER, S-9, 3-METHYLCHOLANTHRENE, Method: STANDARD PLATE) is “active; positive” and the mutagenic call (Test System: AMES SALMONELLA TYPHIMURIUM, Strain/Indicator: TA98, Metabolic Activation: HAMSTER, LIVER, S-9, Method: STANDARD PLATE) was “active; positive”.

For the compound `[Cl][Sn]([c]1ccccc1)([c]1ccccc1)[c]1ccccc1`, the mutagenic call by setting is: (Test System: AMES SALMONELLA TYPHIMURIUM, Strain/Indicator: TA98, Metabolic Activation: NONE, Method: SUSPENSION/PLATE) “inactive; negative”; (Test System: AMES SALMONELLA TYPHIMURIUM, Strain/Indicator: TA100, Metabolic Activation: NONE, Method: SUSPENSION/PLATE) “inactive; negative”.

Regarding `COc1c(Cl)ccc(Cl)c1C(=O)O`, the mutagenic call was “inactive; negative” (Test System: AMES SALMONELLA TYPHIMURIUM, Strain/Indicator: TA97, Metabolic Activation: NONE, Method: STANDARD PLATE); “inactive; negative” (Test System: AMES SALMONELLA TYPHIMURIUM, Strain/Indicator: TA97, Metabolic Activation: RAT, LIVER, S-9, AROCLOR 1254, Method: STANDARD PLATE); “inactive; negative” under setting [1]; “inactive; negative” under setting [2]; “inactive; negative” under setting [3]; “inactive; negative” under setting [4]. For the same compound, the mutagenic call (Test System: AMES SALMONELLA TYPHIMURIUM, Strain/Indicator: TA102, Metabolic Activation: NONE, Method: STANDARD PLATE) is “inactive; negative”; the mutagenic call (Test System: AMES SALMONELLA TYPHIMURIUM, Strain/Indicator: TA102, Metabolic Activation: RAT, LIVER, S-9, AROCLOR 1254, Method: STANDARD PLATE) is “inactive; negative”; the mutagenic call (Test System: UDS HUMAN LYMPHOCYTES, Strain/Indicator: THY INCORP (NON-S-PHASE), Metabolic Activation: NONE, Method: LIQUID SCINTILLATION COUNTING) is “inactive; negative”; the mutagenic call (Test System: UDS HUMAN LYMPHOCYTES, Strain/Indicator: THY INCORP (NON-S-PHASE), Metabolic Activation: RAT, LIVER, S-9, Method: LIQUID SCINTILLATION COUNTING) is “active; positive”.

`CC(=O)O/C=C/Cc1ccc2c(c1)OCO2`: the mutagenic call (Test System: UDS HUMAN FIBROBLASTS, Strain/Indicator: THY INCORP (NON-S-PHASE), Metabolic Activation: NONE, Method: AUTORADIOGRAPHY) is “active; positive”.

These data come from PubChem BioAssay AID1259407 (Chemical Carcinogenesis Research Information System (CCRIS), 2018).
